Assay results as given in ChEMBL document CHEMBL1201862, “PubChem BioAssay data set” (2004).
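Five concentrations, 48 hours, 96-well plates. GI50 marks 50% less growth.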 Active and inactive are the calls of the source. No stated cut-off is given here; in the data, active = GI50 up to about 1.1 µM and inactive = higher.

Key:
Assay in all cases: growth of human tumour cells (NCI), 48 h
UO-31 = system: UO-31
MOLT-4 = system: MOLT-4
RPMI-8226 = system: RPMI-8226
A549 = system: A549
HT-29 = system: HT-29
EKVX = system: EKVX
HL-60 = system: HL-60
SNB-75 = system: SNB-75
SK-MEL-5 = system: SK-MEL-5
RXF 393 = system: RXF 393
SK-MEL-28 = system: SK-MEL-28
KM12 = system: KM12
HOP-62 = system: HOP-62
SF-295 = system: SF-295
NCI-H522 = system: NCI-H522
OVCAR-3 = system: OVCAR-3
TK-10 = system: TK-10
OVCAR-5 = system: OVCAR-5
MCF7 = system: MCF7
PC-3 = system: PC-3

SMILES | GI50 (UO-31) | GI50 (MOLT-4) | GI50 (RPMI-8226) | GI50 (A549) | GI50 (HT-29) | GI50 (EKVX) | GI50 (HL-60) | GI50 (SNB-75) | GI50 (SK-MEL-5) | GI50 (RXF 393) | GI50 (SK-MEL-28) | GI50 (KM12) | GI50 (HOP-62) | GI50 (SF-295) | GI50 (NCI-H522) | GI50 (OVCAR-3) | GI50 (TK-10) | GI50 (OVCAR-5) | GI50 (MCF7) | GI50 (PC-3)
COc1ccc2c(CN3CCCCC3CO)cc3cc(OC)c(OC)cc3c2c1 (centres undefined) | 2.87 µM (inactive) | 2.82 µM (inactive) | 3.48 µM (inactive) | 3.97 µM (inactive) | 2.43 µM (inactive) | 6.41 µM (inactive) | 3.38 µM (inactive) | 8.53 µM (inactive) | 7.5 µM (inactive) | 6.65 µM (inactive) | 6.32 µM (inactive) | 4.35 µM (inactive) | 6.43 µM (inactive) | 3.02 µM (inactive) | 2.52 µM (inactive) | 5.57 µM (inactive) | 4.7 µM (inactive) | 3.1 µM (inactive) |  | 
C/C(CC(=O)Nc1ccc(NC(=O)C/C(C)=N\NC(N)=O)cc1)=N/NC(N)=O | > 85.1 µM (inactive) | 47.2 µM (inactive) | 24.8 µM (inactive) | > 100 µM (inactive) | 96.8 µM (inactive) | > 74.3 µM (inactive) | > 61.7 µM (inactive) | > 93.5 µM (inactive) | > 100 µM (inactive) | > 91.4 µM (inactive) | > 44.4 µM (inactive) | > 100 µM (inactive) | > 100 µM (inactive) | > 100 µM (inactive) | > 51.5 µM (inactive) | 49.5 µM (inactive) | > 68.7 µM (inactive) | > 100 µM (inactive) |  | 
COc1cccc2c1OC1Sc3ccccc3-c3nn(-c4ccccc4)c-2c31 (centres undefined) | > 100 µM (inactive) | > 100 µM (inactive) | > 100 µM (inactive) | > 100 µM (inactive) | > 100 µM (inactive) | > 100 µM (inactive) | > 100 µM (inactive) | > 100 µM (inactive) |  | > 100 µM (inactive) | > 100 µM (inactive) | > 100 µM (inactive) | > 100 µM (inactive) | > 100 µM (inactive) | 26.7 µM (inactive) | > 100 µM (inactive) | > 100 µM (inactive) | > 100 µM (inactive) |  | 
O=C(CSc1nnc(Cc2ccccc2)o1)Nc1cccc(Cl)c1 | > 100 µM (inactive) | 79.3 µM (inactive) | 72.4 µM (inactive) | > 100 µM (inactive) | 66.2 µM (inactive) | > 100 µM (inactive) | > 100 µM (inactive) | 25.9 µM (inactive) | 76.7 µM (inactive) | > 100 µM (inactive) | > 100 µM (inactive) | > 100 µM (inactive) | > 100 µM (inactive) | 68.7 µM (inactive) | 40.9 µM (inactive) | 31.9 µM (inactive) | > 100 µM (inactive) | > 100 µM (inactive) |  | 
O=c1cc(-c2ccncc2)[nH]c2cc3c(cc12)OCO3 | > 100 µM (inactive) | > 100 µM (inactive) | > 100 µM (inactive) | > 100 µM (inactive) | > 100 µM (inactive) | > 100 µM (inactive) |  | 49.7 µM (inactive) | > 100 µM (inactive) | > 100 µM (inactive) | > 100 µM (inactive) | > 100 µM (inactive) | > 100 µM (inactive) | > 100 µM (inactive) |  | > 100 µM (inactive) | > 100 µM (inactive) | > 100 µM (inactive) | > 100 µM (inactive) | 
Nc1ccc2ncc(Nc3ccc(Cl)c(Cl)c3)nc2c1 | 19.7 µM (inactive) | 17.7 µM (inactive) | 24.5 µM (inactive) | 26.3 µM (inactive) | 14.8 µM (inactive) | 27.2 µM (inactive) | 14.5 µM (inactive) | 16 µM (inactive) | 17.5 µM (inactive) | 24.7 µM (inactive) | 26.5 µM (inactive) | 25.9 µM (inactive) | 42.3 µM (inactive) | 20 µM (inactive) | 17.9 µM (inactive) | 19.4 µM (inactive) | 70.6 µM (inactive) | 38.5 µM (inactive) |  | 
Fc1ccccc1C1CC(C(c2ccccc2)c2ccccc2)=Nc2ccccc2S1 (centres undefined) | 14 µM (inactive) | 2.71 µM (inactive) | 3.6 µM (inactive) | 11.4 µM (inactive) | 5.61 µM (inactive) | 10.3 µM (inactive) | 2.55 µM (inactive) | 1.13 µM (inactive) | 11.2 µM (inactive) | 4.63 µM (inactive) | 12.6 µM (inactive) | 5.38 µM (inactive) | 12.6 µM (inactive) | 9.48 µM (inactive) | 6.79 µM (inactive) | 11.3 µM (inactive) | 10.7 µM (inactive) | 12.1 µM (inactive) |  | 
Cc1ccc2nc(N)[nH]c(=O)c2c1Sc1ccncc1 | 64.1 µM (inactive) | 6.28 µM (inactive) | 23.3 µM (inactive) | 6.73 µM (inactive) | > 100 µM (inactive) | 49.8 µM (inactive) | 10.9 µM (inactive) | > 78.9 µM (inactive) | 21.2 µM (inactive) | 55.8 µM (inactive) | > 92.3 µM (inactive) | > 51.6 µM (inactive) | 5.11 µM (inactive) | 8.07 µM (inactive) | 17.8 µM (inactive) | > 69.2 µM (inactive) | > 100 µM (inactive) | 91.2 µM (inactive) |  | 
C/C(=N\NC(=O)c1ccccc1O)c1c(O)cc(C)oc1=O | 31.5 µM (inactive) | 67.5 µM (inactive) | 50.4 µM (inactive) | 33 µM (inactive) | > 100 µM (inactive) | 29.9 µM (inactive) | 63.2 µM (inactive) | 20.2 µM (inactive) | 43.8 µM (inactive) | 40.6 µM (inactive) | > 100 µM (inactive) | > 100 µM (inactive) | 98.6 µM (inactive) | 51.4 µM (inactive) | 32.7 µM (inactive) | 41.2 µM (inactive) | > 100 µM (inactive) | 73.3 µM (inactive) |  | 
COc1cc2c(cc1OC)/C(=C\c1ccccc1N)C(=O)OC2 | 15.5 µM (inactive) | 2.31 µM (inactive) | 1.84 µM (inactive) | 32.1 µM (inactive) | 11.8 µM (inactive) | 25 µM (inactive) | 3.3 µM (inactive) | 10.3 µM (inactive) | 17.8 µM (inactive) | 3.79 µM (inactive) | 17 µM (inactive) | 13.9 µM (inactive) | 23.3 µM (inactive) | 15.1 µM (inactive) | 1.56 µM (inactive) | 18.7 µM (inactive) | 20.6 µM (inactive) | 20 µM (inactive) |  | 
CSC1=N/C(=C\c2ccco2)C(=O)N1CN1CCCCC1 | > 100 µM (inactive) | 71.3 µM (inactive) | 35.6 µM (inactive) | > 100 µM (inactive) | 51.6 µM (inactive) | > 100 µM (inactive) |  | > 100 µM (inactive) | 55.1 µM (inactive) |  | > 100 µM (inactive) | > 100 µM (inactive) | > 100 µM (inactive) | > 100 µM (inactive) | > 100 µM (inactive) | > 100 µM (inactive) | > 100 µM (inactive) | > 100 µM (inactive) | 17.3 µM (inactive) | > 100 µM (inactive)
O=C(NNC(=O)c1cc(/C=C/c2cccc([N+](=O)[O-])c2)nc(S)n1)Nc1ccc(Cl)cc1 | 91.2 µM (inactive) | 23.6 µM (inactive) | 25.5 µM (inactive) | 70 µM (inactive) | 41.8 µM (inactive) | > 100 µM (inactive) | 0.883 µM (active) | > 100 µM (inactive) | 86.5 µM (inactive) | 34.5 µM (inactive) | > 100 µM (inactive) | 98.9 µM (inactive) | > 100 µM (inactive) | > 100 µM (inactive) | 22.7 µM (inactive) | 62.8 µM (inactive) | > 100 µM (inactive) | > 100 µM (inactive) |  | 
CCOC(OCC)N1C(=O)C2(C(OCC)OCC)CC3C(OC(=O)N3N)c3cccc1c32 (centres undefined) | > 100 µM (inactive) | 79.4 µM (inactive) | > 100 µM (inactive) | > 100 µM (inactive) | > 100 µM (inactive) | > 100 µM (inactive) | > 100 µM (inactive) |  | > 100 µM (inactive) | > 100 µM (inactive) | > 100 µM (inactive) | > 100 µM (inactive) | > 100 µM (inactive) | > 100 µM (inactive) |  | > 100 µM (inactive) | > 100 µM (inactive) | > 100 µM (inactive) | > 100 µM (inactive) | 
NCCSSCc1ccccc1CSSCCN | > 100 µM (inactive) | 30.5 µM (inactive) | 67.8 µM (inactive) | > 100 µM (inactive) | 97.1 µM (inactive) | > 100 µM (inactive) | 8.02 µM (inactive) | > 100 µM (inactive) | 57.9 µM (inactive) | > 100 µM (inactive) | > 100 µM (inactive) | > 100 µM (inactive) | > 100 µM (inactive) | > 100 µM (inactive) | 14.1 µM (inactive) | > 100 µM (inactive) | > 100 µM (inactive) | > 100 µM (inactive) |  | 
COC(=O)C1=CC2OC13CC1CCC3(C2=O)C1(C)C (centres undefined) | 5.89 µM (inactive) | 14 µM (inactive) | 15.1 µM (inactive) | 31.4 µM (inactive) | 13.2 µM (inactive) | > 10 µM (inactive) | 6.9 µM (inactive) | 7.01 µM (inactive) | 15.8 µM (inactive) | 12 µM (inactive) |  | 16.5 µM (inactive) | 23.4 µM (inactive) | 19.6 µM (inactive) | 2.34 µM (inactive) | 5.89 µM (inactive) | 10.4 µM (inactive) | 19 µM (inactive) |  | 
O=[N+]([O-])C1C2C=CC(C2)[C@H]1c1ccccc1Cl (some centres undefined) | > 54 µM (inactive) | 57 µM (inactive) | > 69.8 µM (inactive) | > 84.5 µM (inactive) | 99.8 µM (inactive) | > 100 µM (inactive) | 29.9 µM (inactive) | 20.5 µM (inactive) | 53.5 µM (inactive) | 45.8 µM (inactive) | > 68.7 µM (inactive) | > 100 µM (inactive) | > 10 µM (inactive) | > 100 µM (inactive) | 23.8 µM (inactive) | 22 µM (inactive) | > 100 µM (inactive) | 16.5 µM (inactive) |  | 
